Columns and labels:
human plasma kallikrein = human plasma kallikrein (Homo sapiens (Human), UniProt P03952); test: Determination of the plasma kallikrein activity (fluorogenic peptide substrate); type: biochemical; details: plasma kallikrein from Kordia, substrate H-Pro-Phe-Arg-AMC, 22° C., 30 min
Method: (§1) To determine the plasma kallikrein inhibition of the substances according to the invention, a biochemical test system is used which utilizes the reaction of a peptidic plasma kallikrein substrate to determine the enzymatic activity of human plasma kallikrein. Here, plasma kallikrein cleaves from the peptic plasma kallikrein substrate the C-terminal aminomethylcoumarin (AMC), the fluorescence of which is measured. The determinations are carried out in microtitre plates.
1 μl of the diluted substance solutions is placed into each of the wells of white microtitre plates from Greiner (384 wells). 20 μl of assay buffer (50 mM Tris/HCl pH 7.4; 100 mM sodium chloride solution; 5 mM of calcium chloride solution; 0.1% of bovine serum albumin) and 20 μl of plasma kallikrein from Kordia (0.6 nM in assay buffer) are then added successively. After 15 min of incubation, the enzyme reaction is started by addition of 20 μl of the substrate H-Pro-Phe-Arg-AMC dissolved in assay buffer (10 μM in assay buffer) from Bachem, the mixture is incubated at room temperature (22° C.) for 30 min and fluorescence is then measured (excitation: 360 nm, emission: 460 nm). The measured emissions of the test batches with test substance are compared to those of control batches without test substance (only dimethyl sulphoxide instead of test substance in dimethyl sulphoxide), and IC50 values are calculated from the concentration/activity relationships.

human factor XIa = human factor XIa (Homo sapiens (Human), UniProt P03951); test: Measurement of FXIa inhibition (fluorogenic peptide substrate); type: biochemical; details: factor XIa from Kordia, substrate Boc-Glu(OBzl)-Ala-Arg-AMC, 22° C., 30 min
Method: as §1, with “The factor XIa” for “To determine the plasma kallikrein”, “invention is determined using” for “invention,”, “system” for “system is used”, “factor XIa” for “plasma kallikrein”, “factor XIa.” for “plasma kallikrein.”
1 μl of the diluted substance solutions is placed into each of the wells of white microtitre plates from Greiner (384 wells). […] After 15 min of incubation, the enzyme reaction is started by addition of 20 μl of the factor XIa substrate Boc-Glu(OBzl)-Ala-Arg-AMC dissolved in assay buffer (10 μM in assay buffer) from Bachem, the mixture is incubated at room temperature (22° C.) for 30 min and fluorescence is then measured (excitation: 360 nm, emission: 460 nm). The measured emissions of the test batches with test substance are compared to those of control batches without test substance (only dimethyl sulphoxide instead of test substance in dimethyl sulphoxide), and IC50 values are calculated from the concentration/activity relationships.

Chain of human plasma kallikrein (P03952 391-638): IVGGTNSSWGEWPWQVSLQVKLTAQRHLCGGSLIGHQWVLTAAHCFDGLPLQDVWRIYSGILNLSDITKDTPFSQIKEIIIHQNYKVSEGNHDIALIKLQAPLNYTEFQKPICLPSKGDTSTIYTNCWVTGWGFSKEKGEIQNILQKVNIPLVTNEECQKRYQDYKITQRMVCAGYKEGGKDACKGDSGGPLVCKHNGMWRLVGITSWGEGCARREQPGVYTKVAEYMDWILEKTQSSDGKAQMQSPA
Chain of human plasma kallikrein (P03952 20-390 partner): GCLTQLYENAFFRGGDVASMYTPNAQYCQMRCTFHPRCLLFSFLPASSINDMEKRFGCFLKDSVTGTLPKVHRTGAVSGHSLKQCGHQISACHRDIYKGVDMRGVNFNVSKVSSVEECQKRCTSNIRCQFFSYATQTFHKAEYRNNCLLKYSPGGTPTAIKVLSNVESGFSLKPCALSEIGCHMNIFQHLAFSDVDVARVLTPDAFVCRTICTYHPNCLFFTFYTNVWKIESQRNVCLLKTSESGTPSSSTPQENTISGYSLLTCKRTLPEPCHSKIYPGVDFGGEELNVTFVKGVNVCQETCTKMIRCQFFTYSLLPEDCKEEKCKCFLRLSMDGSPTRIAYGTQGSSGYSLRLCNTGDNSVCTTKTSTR
Chain of human factor XIa (P03951 388-625): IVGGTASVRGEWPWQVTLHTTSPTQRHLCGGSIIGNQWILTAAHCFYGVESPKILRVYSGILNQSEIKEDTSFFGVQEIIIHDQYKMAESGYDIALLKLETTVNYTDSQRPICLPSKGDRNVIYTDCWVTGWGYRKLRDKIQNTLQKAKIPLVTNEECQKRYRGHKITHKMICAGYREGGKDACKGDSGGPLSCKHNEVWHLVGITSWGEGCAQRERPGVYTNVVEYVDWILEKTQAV
Chain of human factor XIa (P03951 19-387 partner): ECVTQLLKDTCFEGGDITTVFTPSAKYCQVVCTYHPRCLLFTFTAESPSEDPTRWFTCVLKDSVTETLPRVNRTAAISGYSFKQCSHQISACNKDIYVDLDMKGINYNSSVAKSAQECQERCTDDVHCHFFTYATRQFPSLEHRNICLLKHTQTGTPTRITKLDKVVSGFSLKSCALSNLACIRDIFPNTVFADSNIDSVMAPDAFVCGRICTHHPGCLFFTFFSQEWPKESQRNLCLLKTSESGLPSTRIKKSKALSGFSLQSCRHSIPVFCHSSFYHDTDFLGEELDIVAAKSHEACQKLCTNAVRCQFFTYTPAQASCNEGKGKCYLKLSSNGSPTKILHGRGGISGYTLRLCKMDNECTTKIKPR

Row | SMILES | IC50 (human plasma kallikrein) [nM] | IC50 (human factor XIa) [nM]
1 | COCCC(C(=O)Nc1ccc(C(N)=O)s1)n1cc(Cl)c(-c2cc(Cl)ccc2C#N)cc1=O (racemic) [Example 2, 5-({2-[5-Chloro-4-(5-chloro-2-cyanophenyl)-2-oxopyridin-1(2H)-yl]-4-methoxybutanoyl}amino)-thiophene-2-carboxamide (racemate)] | 28 | 26
2 | COc1cn(C(Cc2ccccn2)C(=O)Nc2cc(F)c(C(N)=O)s2)c(=O)cc1-c1cc(Cl)ccc1C#N (racemic) [Example 3, 5-({2-[4-(5-Chloro-2-cyanophenyl)-5-methoxy-2-oxopyridin-1(2H)-yl]-3-(pyridin-2-yl)propanoyl}-amino)-3-fluorothiophene-2-carboxamide (racemate)] |  | 34
3 | COCCC(C(=O)Nc1cc(F)c(C(N)=O)s1)n1cc(OC)c(-c2cc(Cl)ccc2C#N)cc1=O (racemic) [Example 9, 5-({2-[4-(5-Chloro-2-cyanophenyl)-5-methoxy-2-oxopyridin-1(2H)-yl]-4-methoxybutanoyl}amino)-3-fluorothiophene-2-carboxamide (racemate)] | 100 | 54
4 | CNC(=O)c1ccc(NC(=O)C(Cc2ccn(C)n2)n2cc(OC)c(-c3cc(Cl)ccc3C#N)cc2=O)s1 (single isomer, unassigned; enantiomer 1) [Example 16, 5-({2-[4-(5 -Chloro-2-cyanophenyl)-5-methoxy-2-oxopyridin-1(2H)-yl]-3-(1-methyl-1H-pyrazol-3-yl)propanoyl}amino)-N-methylthiophene-2-carboxamide (enantiomer 1)] | 1.5 | 2.8
5 | COc1cn(C(Cc2ccncc2)C(=O)Nc2cc(F)c(C(N)=O)s2)c(=O)cc1-c1cc(Cl)ccc1C#N (racemic) [Example 4, 5-({2-[4-(5-Chloro-2-cyanophenyl)-5-methoxy-2-oxopyridin-1(2H)-yl]-3-(pyridin-4-yl)propanoyl}-amino)-3-fluorothiophene-2-carboxamide (racemate)] | 36 | 29
6 | COc1cn(C(Cc2ccccn2)C(=O)Nc2cc(F)c(C(N)=O)s2)c(=O)cc1-c1cc(Cl)ccc1F (racemic) [Example 6, 5-({2-[4-(5-Chloro-2-fluorophenyl)-5-methoxy-2-oxopyridin-1(2H)-yl]-3-(pyridin-2-yl)propanoyl}-amino)-3-fluorothiophene-2-carboxamide (racemate)] | > 10000 | 1200
7 | CNC(=O)c1ccc(NC(=O)C(Cc2ccn(C)n2)n2cc(OC)c(-c3cc(Cl)ccc3C#N)cc2=O)s1 (racemic) [Example 15, 5-({2-[4-(5-Chloro-2-cyanophenyl)-5-methoxy-2-oxopyridin-1(2H)-yl]-3-(1-methyl-1H-pyrazol-3-yl)propanoyl}amino)-N-methylthiophene-2-carboxamide (racemate)] | 1.6 | 5.4
8 | COCCC(C(=O)Nc1ccc(C(=O)O)s1)n1cc(OC)c(-c2cc(Cl)ccc2C#N)cc1=O (racemic) [Example 7, 5-({2-[4-(5-Chloro-2-cyanophenyl)-5-methoxy-2-oxopyridin-1(2H)-yl]-4-methoxybutanoyl}amino)-thiophene-2-carboxylic acid (racemate)] |  | 3
9 | COCCC(C(=O)Nc1cc(F)c(C(N)=O)s1)n1cc(OC)c(-c2cc(Cl)ccc2C#N)cc1=O (single isomer, unassigned; enantiomer 1) [Example 10, 5-({2-[4-(5-Chloro-2-cyanophenyl)-5-methoxy-2-oxopyridin-1(2H)-yl]-4-methoxybutanoyl}-amino)-3-fluorothiophene-2-carboxamide (enantiomer 1)] | 47 | 27
10 | COCCC(C(=O)Nc1ccc(C(=O)O)s1)n1cc(Cl)c(-c2cc(Cl)ccc2C#N)cc1=O (racemic) [Example 19, 5-({2-[5-Chloro-4-(5-chloro-2-cyanophenyl)-2-oxopyridin-1(2H)-yl]-4-methoxybutanoyl}amino)-thiophene-2-carboxylic acid (racemate)] | 47 | 6.9
11 | CNC(=O)c1ccc(NC(=O)C(Cc2cnco2)n2cc(OC)c(-c3cc(Cl)ccc3C#N)cc2=O)s1 (racemic) [Example 17, 5-({2-[4-(5-Chloro-2-cyanophenyl)-5-methoxy-2-oxopyridin-1(2H)-yl]-3-(1,3-oxazol-5-yl)-propanoyl}amino)-N-methylthiophene-2-carboxamide (racemate)] |  | 6.2
12 | COc1cn(C(Cc2ccccn2)C(=O)Nc2ccc(C(=O)O)s2)c(=O)cc1-c1cc(Cl)ccc1C#N (racemic) [Example 18, 5-({2-[4-(5-Chloro-2-cyanophenyl)-5-methoxy-2-oxopyridin-1(2H)-yl]-3-(pyridin-2-yl)propanoyl}-amino)thiophene-2-carboxylic acid (racemate)] |  | 2.6
